Laboratory results from patent US6989397B1, “Iron chelators and uses thereof” (University of Queensland, priority 1999, dated 2006).
Where “and” joins values, the source holds several entries; their conditions need not be identical. Identical values can stand only once. Like-named read-outs stand apart in the source and are kept apart here.

Key:
[1] = tested on: iron-regulatory proteins (IRPs); assay: iron regulatory protein gel-retardation assay (IRP-RNA binding activity); assay type: cell-based, human; conditions: SK-N-MC cells, 20 hr incubation; chelators 25 μM, DFO 100 μM, FAC 100 μg/ml
Method: FIG. 5. The effect of the chelators on the RNA-binding activity of the iron-regulatory proteins (IRPs) in the SK-N-MC neuroepithelioma cells. Cells were incubated for 20 h with either medium alone (control), ferric ammonium citrate (FAC: 100 μg/ml), DFO (100 μM), or the other chelators (25 μM).
A gel-retardation assay was used to measure the interaction between the IRPs and IRE using established techniques (Leibold et al., […]. Proc. Natl. Acad. Sci. USA 85 2171–5; Müllner et al., 1989 Cell 58 373–82). Briefly, after incubation with medium alone (control) or medium containing ferric ammonium citrate (100 μg/ml: Aldrich Ltd., Sydney, Australia) or the chelator. […] cells were washed with ice-cold phosphate-buffered saline (PBS) and lysed at 4° C. in 40 μl of ice-cold Munro extraction buffer (10 mM HEPES, pH 7.6, 3 mM MgCl2, 40 mM KCl, 5% glycerol, 1 MM dithiothreitol and 0.5% Nonidet P-40). After lysis, the samples were then centrifuged at 10,000 rpm for 3 mins at 4° C. to remove nuclei and the supernatant stored at −70° C. Frozen cytoplasmic extracts were thawed on ice and then centrifuged at 15,000 rpm for 10 min at 4° C. The protein concentration of the soluble supernatant was determined using the BioRad protein assay (BioRad Ltd., USA). Samples of cytoplasmic extracts were diluted to a protein concentration of 100 μg/ml in Munro buffer without Nonidet P-40 and 1 μg aliquots were analyzed for IRP by incubation with 0.1 ng (approximately 1×10^5 cpm) of ^32P-labelled pGL66 RNA transcript (Leibold et al., 1988). The riboprobe was transcribed in vitro from linearized plasmid templates using SP6 RNA polymerase in the presence of α-^32P UTP (Dupont, NEN). This latter reaction was performed using the Promega Riboprobe In Vitro Transcription Kit (Promega, Madison, Wis., USA). The probe was subsequently purified on a 6% urea/PAGE gel. To form RNA-protein complexes, cytoplasmic extracts containing 1 μg of protein were incubated for 10 mins at room temperature with the ^32P-labelled riboprobe. Unprotected probe was degraded by incubation with 1 U of RNAse T1 for 10 mins at room temperature. Heparin (Sigma) at a final concentration of 5 mg/ml was then added and incubated with the extract for another 10 min at room temperature to exclude non-specific binding. RNA-protein complexes were analyzed in 6% non-denaturing polyacrylamide gels at 4° C. as described by Konarska et al., 1986, Cell 46 845–55. Gels were dried, covered in plastic film and exposed to Kodak XAR films at −70° C. with an intensifying screen.
An important effect of intracellular Fe depletion using DFO is the activation of RNA-binding activity of the iron regulatory proteins (IRP's) (Hentze et al., 1996, Proc. Natl. Acad. Sci. USA 93 8175–82). […] The present inventors examined the effect of a 20 hr incubation with 311, PIH and the PCIH analogues (25 μM) on IRP-RNA binding activity in SK-N-MC cells. In all experiments, DFO (100 μM) was used as a positive control to deplete cells of Fe and increase IRP-RNA binding activity. In contrast, ferric ammonium citrate (FAC: 100 μg/ml) was used to donate Fe to cells and reduce IRP-RNA binding.

[2] = tested on: 59Fe-loaded reticulocytes; assay: mobilisation of 59Fe from 59Fe-loaded reticulocytes (mitochondrial Fe overload model); assay type: cell-based, rabbit; conditions: for cellular 59Fe mobilized from 59Fe-loaded reticulocytes after 240 min: chelators 200 μM, 240 min of incubation; for cellular 59Fe released from 59Fe-loaded reticulocytes, 1 h reincubation (FIG. 9): chelator concentration 200 μM (range 10–200 μM), reincubated 1 h at 37° C.
Method: FIG. 7. The effect of reincubation time with the Fe chelators on ^59Fe mobilization from ^59Fe-loaded reticulocytes. The cells were labelled with ^59Fe-transferrin (3.75 μM) in the presence of the heme synthesis inhibitor, succinylacetone (1 mM), and incubated with the cells for 1 h at 37° C. The ^59Fe-labelled reticulocytes were then incubated with the chelators (200 μM) for 15–240 min at 37° C. The results are Mean±SD (3 determinations) in a typical experiment of three performed.
FIG. 9. The effect of chelator concentration on ^59Fe mobilization from ^59Fe-loaded reticulocytes. The cells were labelled with ^59Fe-transferrin (3.75 μM) in the presence of the heme synthesis inhibitor, succinylacetone (1 mM), and incubated with the cells for 1 h at 37° C. The ^59Fe-labelled reticulocytes were then incubated with the chelators (10–200 μM) for 15–240 min at 37° C. The results are Mean±SD (3 determinations) in a typical experiment of three performed.
Reticulocytosis was induced by standard procedures (Richardson, D. R., Ponka, P and Vyoral, D (1996) Blood 87, 3477–3488) in New Zealand white rabbits by repeated phlebotomy by cardiac puncture using a protocol approved by the McGill University Animal Care Committee. Reticulocytes were identified based on staining with new methylene blue, and cell counts were determined using an improved Neubauer counting chamber.
Reticulocytes were obtained from chronically bled rabbits as described above and were incubated with 1 mM succinylacetone (SA: Sigma) to inhibit heme synthesis. After a 15 min preincubation in the presence of SA, ^59Fe-Tf ([…]) was added and incubated with the cells for 1 H at 37° C. with shaking. After this incubation the reticulocytes were washed three times with ice-cold PBS to remove non-specifically bound ^59Fe-Tf. The washed ^59Fe-labelled reticulocytes (30–35 μL) were incubated in buffered salt solution (250 μL final volume) with the apochelators. The SA was present in all incubations with the chelators to prevent the utilization of non-heme ^59Fe for heme synthesis. After the incubation, ^59Fe was measured both in washed reticulocytes and in the medium, and the percentage of ^59Fe mobilized from the reticulocytes was then calculated.

[3] = tested on: SK-N-MC neuroepithelioma cells; assay: internalized 59Fe uptake from 59Fe-transferrin; assay type: cell-based, human; conditions: SK-N-MC; 3 hrs at 37° C.; chelators 50 μM, DFO 100 μM; FIG. 2B screening experiment
Method: The effect of chelators on ^59Fe uptake from ^59Fe-Tf and ^59Fe release from prelabelled cells was studied using standard procedures reported previously (Richardson et al., 1994, J. Lab Clin. Med. 124 660-71). The amount of ^59Fe internalized by the cells was measured by incubation with the general protease pronase (1 mg/ml) for 30 min at 4° C. to remove membrane-bound ^59Fe and Tf (Richardson et al., 1990; Baker et al., 1998, Biochim. Biophys. Acta 1380 21-30). […] To determine the ability of the chelators to inhibit ^59Fe uptake from ^59Fe-Tf (0.75 μM). […] Table 2. The effect of DFO, 311, […], or PCBHH on internalized ^59Fe uptake from ^59Fe-transferrin by BE-2 neuroblastoma cells, SK-N-MC neuroepithelioma cells, and SK-Mel-28 melanoma cells. Cells were incubated with the chelators and ^59Fe-transferrin (0.75 μM) for 3 h at 37° C., washed, and incubated for 30 min at 4° C. with pronase (1 mg/ml) to separate the internalized from the membrane-bound ^59Fe. All chelators were screened at a concentration of 50 μM except for DFO which was examined at 100 μM. Results are mean±SD (three determinations) from a typical experiment.

[4] = tested on: SK-N-MC neuroepithelioma cells; assay: 59Fe release from prelabelled cells (iron efflux); assay type: cell-based, human; conditions: 3 hr labelling, 3 hr reincubation, ligands 50 μM, DFO 100 μM, FIG. 2A screening experiment
Method: The effect of chelators on ^59Fe uptake from ^59Fe-Tf and ^59Fe release from prelabelled cells was studied using standard procedures reported previously (Richardson et al., 1994, J. Lab Clin. Med. 124 660–71). The amount of ^59Fe internalized by the cells was measured by incubation with the general protease pronase (1 mg/ml) for 30 min at 4° C. to remove membrane-bound ^59Fe and Tf (Richardson et al., 1990; Baker et al., 1998, Biochim. Biophys. Acta 1380 21–30).
The efflux of ^59Fe from SK-N-MC cells was examined after a 3 hr labelling period with ^59Fe-Tf (0.75 μM) followed by a 3 hr reincubation in the presence and absence of DFO (100 μM) or the remainder of the ligands at 50 μM (FIG. 2A).
Table 1. The effect of DFO, 311, PCTH, PCBH, or PCBHH on ^59Fe release from BE-2 neuroblastoma cells, SK-N-MC neuroepithelioma cells, and SK-Mel-28 melanoma cells. Cells were labeled for 3 h at 37° C. with ^59Fe-transferrin (0.75 μM), washed, and then reincubated with the chelators for 3 h at 37° C. […] Results are Mean±SD of three determinations in a typical experiment.

[5] = aqueous solubility; assay type: physicochemical; conditions: water / aqueous solutions
[6] = tested on: SK-N-MC neuroepithelioma cells; assay: 3H-thymidine, 3H-leucine or 3H-uridine incorporation; assay type: cell-based, human; conditions: 20 hr with chelators 50 μM, DFO 100 μM, then label 2 h, Mean±SD
Method: Labelling of cells with ^3H-thymidine (20 Ci/mmol: Dupont NEN, MA, U.S.A.), ^3H-uridine (42.7 Ci/mmol/Dupont NEN, MA, U.S.A.) and ^3H-leucine (52 Ci/mmol: Dupont NEN) was estimated after precipitation with trichloroacetic acid (TCA). After a 20 hr incubation with the chelators, ^3H-leucine, ^3H-uridine or ^3H-thymidine (1 μCi/ml) were then added for 2 hrs at 37° C. Subsequently, petri dishes containing cell cultures were placed on ice and washed four times with ice-cold Hanks' balanced salt solution (BSS) and the cells detached from the plate using 1 mM EDTA in Ca/Mg-free saline. The cells were then pelleted by centrifugation, the supernatant removed and the pellet frozen at −70° C. After thawing the cells on ice, 1 ml of ice-cold 20% TCA was added and the solution then vortexed and kept on ice for 1 hr with periodic mixing. This solution was then centrifuged at 15,000 rpm for 15 mins at 4° C. and the supernatant removed. The pellet was then washed twice with 1 ml of ice-cold 10% TCA. The pellet was dissolved in 0.5 ml of 1 M NaOH and transferred to scintillation tubes with 3 ml of scintillant. Radioactivity was measured on a β-scintillation counter (LKB Wallace, Finland).
Table 3. The effect of the chelators on ^3H-thymidine, ^3H-leucine, or ^3H-uridine incorporation into SK-N-MC neuroepithelioma cells. Cells were incubated for 20 hr at 37° C. with either DFO (100 μM) or the other chelators (50 μM). Following this, either ^3H-thymidine, ^3H-leucine, or ^3H-uridine (1 μCi/mL) were added and the cells incubated for an additional 2 h at 37° C. (see Methods for details). Results are Mean±SD (4–5 determinations) from a typical experiment of 2–4 experiments performed.

[7] = tested on: iron-regulatory proteins (IRPs); assay: iron regulatory protein gel-retardation assay (IRP-RNA binding activity); assay type: cell-based, human
[8] = Fe-overloaded patients (Olivieri et al.); cited from earlier work

Nc1ccc(C(=O)NN=Cc2ccccn2)cc1 [PCAH, 2-pyridylcarboxaldehyde p-aminobenzoyl hydrazone]
IRP-RNA binding activity compared to the control (FIG. 5) [1]: decreased | cellular 59Fe mobilized from 59Fe-loaded reticulocytes after 240 min ([2]; FIG. 7): 15% | 59Fe uptake from 59Fe-Tf, % of the control value (FIG. 2B) [3]: no effect | release of cellular 59Fe (FIG. 2A) [4]: did not appreciably increase

O=C(NN=Cc1ccccn1)c1ccc(O)cc1 [PCHH, 2-pyridylcarboxaldehyde p-hydroxybenzoyl hydrazone]
IRP-RNA binding activity compared to the control (FIG. 5) [1]: decreased | cellular 59Fe released from 59Fe-loaded reticulocytes, 1 h reincubation (FIG. 9) ([2]; 3 determinations): very low activity | cellular 59Fe mobilized from 59Fe-loaded reticulocytes after 240 min ([2]; FIG. 7): 6% | 59Fe uptake from 59Fe-Tf, % of the control value (FIG. 2B) [3]: no effect | release of cellular 59Fe (FIG. 2A) [4]: did not appreciably increase

O=C(NN=Cc1ccccn1)c1ccncc1 [PCIH, 2-pyridylcarboxaldehyde isonicotinoyl hydrazone]
IRP-RNA binding activity compared to the control (FIG. 5) [1]: little effect | cellular 59Fe mobilized from 59Fe-loaded reticulocytes after 15 min ([2]; chelator 200 μM, 15 min incubation, 37° C., FIG. 7, 3 determinations): 21±1% | cellular 59Fe released from 59Fe-loaded reticulocytes, 1 h reincubation (FIG. 9) ([2]; 3 determinations): 31±1% | cellular 59Fe release from reticulocytes as a function of incubation time (FIG. 7), rank in words ([2]; eight compounds, 200 μM, reincubated up to 240 min): most effective | 59Fe uptake from 59Fe-Tf, % of the control value (FIG. 2B) [3]: slightly more effective than DFO

Cl.Cl.O=C(NN=Cc1ccccn1)c1ccncc1 [PCIH-2HCl]
aqueous solubility, in words [5]: most soluble

Cl.O=C(NN=Cc1ccccn1)c1cccs1 [PCTH-HCl]
aqueous solubility, in words [5]: lowest aqueous solubility of the series

Cc1ncc(CO)c(C=NNC(=O)c2ccncc2)c1O [PIH, pyridoxal isonicotinoyl hydrazone, reference compound]
3H-Leucine incorporation, % Control [6]: 84 ± 5 % Control | 3H-Thymidine incorporation, % Control [6]: 52 % Control and 52 ± 9 % Control | 3H-Uridine incorporation, % Control [6]: 56 ± 9 % Control | IRP-RNA binding activity compared to the control (FIG. 5) [1]: little effect | IRP-RNA binding activity at higher concentrations ([7]; higher concentrations than 25 μM, not specified): did increase | cellular 59Fe released from 59Fe-loaded reticulocytes, 1 h reincubation (FIG. 9) ([2]; 3 determinations): 18±1%

Cc1c(O)c(=O)ccn1C [deferiprone, 1,2-dimethyl-3-hydroxypyrid-4-one]
adverse outcome of treatment of patients [8]: hepatic fibrosis and an increase in liver Fe levels

ferric ammonium citrate [FAC]
IRP-RNA binding activity compared to the control (FIG. 5) [7]: appreciable decrease
